Results from patent US20240158446A1, “CYCLIC COMPOUND HAVING SELECTIVE INHIBITORY ACTION ON KRAS OVER HRAS AND NRAS” (CHUGAI SEIYAKU KABUSHIKI KAISHA, priority 2021, published 2024).
pKd: −log10 of the molar value.

Tests used:
[1] = biological target: GDP-bound KRAS wild-type protein (Homo sapiens, UniProt P01116); assay: Binding to KRAS by surface plasmon resonance (SPR), Single Cycle Kinetics; details: SPR, Single Cycle Kinetics, 1:1 binding model; GDP-bound KRAS wild-type protein; read-out: KRAS KD
Sequence of GDP-bound KRAS wild-type protein (P01116 whole entry): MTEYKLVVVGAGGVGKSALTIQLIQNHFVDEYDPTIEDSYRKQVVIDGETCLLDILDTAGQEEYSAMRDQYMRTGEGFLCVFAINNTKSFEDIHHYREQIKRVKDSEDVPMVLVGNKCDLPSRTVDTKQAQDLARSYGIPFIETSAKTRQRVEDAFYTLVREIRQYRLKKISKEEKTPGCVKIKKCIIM

[2] = biological target: GDP-bound NRAS wild-type protein (Homo sapiens, UniProt P01111); assay: Binding to NRAS by surface plasmon resonance (SPR), Single Cycle Kinetics; details: SPR; GDP-bound NRAS wild-type protein vs GDP-bound KRAS wild-type protein; KD ratio class
Sequence of GDP-bound NRAS wild-type protein (P01111 whole entry): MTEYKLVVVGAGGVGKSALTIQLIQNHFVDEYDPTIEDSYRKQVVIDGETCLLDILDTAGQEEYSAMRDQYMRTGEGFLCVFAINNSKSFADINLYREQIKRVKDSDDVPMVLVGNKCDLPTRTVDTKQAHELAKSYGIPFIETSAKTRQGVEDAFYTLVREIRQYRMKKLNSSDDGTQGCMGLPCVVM

[3] = biological target: GDP-bound HRAS wild-type protein (Homo sapiens, UniProt P01112); assay: Binding to HRAS by surface plasmon resonance (SPR), Single Cycle Kinetics; details: SPR; GDP-bound HRAS wild-type protein vs GDP-bound KRAS wild-type protein; KD ratio class
Sequence of GDP-bound HRAS wild-type protein (P01112 whole entry): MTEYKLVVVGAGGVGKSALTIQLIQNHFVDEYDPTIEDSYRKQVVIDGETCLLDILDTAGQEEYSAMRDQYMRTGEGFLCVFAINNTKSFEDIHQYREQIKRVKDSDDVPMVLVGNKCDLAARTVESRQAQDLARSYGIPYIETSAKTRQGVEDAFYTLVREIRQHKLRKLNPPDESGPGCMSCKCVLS

| Structure (SMILES) | pKd [1] | NRAS/KRAS (ratio of KD value for NRAS to KD value for KRAS) [2] | HRAS/KRAS (ratio of KD value for HRAS to KD value for KRAS) [3] |
| --- | --- | --- | --- |
| CCCOC[C@H]1C(=O)N[C@@H]([C@@H](C)CC)C(=O)N(C)CC(=O)N(C)[C@H]2C/C=C\CCN(C2=O)[C@@H](Cc2ccc(C(F)(F)F)cc2)C(=O)N(C)CC(=O)N[C@@H](CCc2cc(F)c(C(F)(F)F)c(F)c2)C(=O)N2C[C@H](OCC)C[C@H]2C(=O)NC2(CC(C)(C)C2)C(=O)N(C)[C@@H](C2CCCC2)C(=O)N(C)[C@H](C(=O)N(C)CC)CC(=O)N1C [PP1572] | 10.11 | A (a compound having 10 or more and less than 20 is denoted as A) | A (a compound having 10 or more and less than 20 is denoted as A) |
| CCO[C@@H]1C[C@H]2C(=O)NC3(CCCC3)C(=O)N(C)[C@@H](C3CCCC3)C(=O)N(C)[C@H](C(=O)N(C)CC)CC(=O)N(C)[C@@H](CC(C)C)C(=O)N[C@@H]([C@@H](C)CC)C(=O)N(C)CC(=O)N(C)[C@H]3C/C=C\CCN(C3=O)[C@@H](Cc3ccc(C(F)(F)F)cc3)C(=O)N(C)CC(=O)N[C@@H](CCc3cc(F)c(C(F)(F)F)c(F)c3)C(=O)N2C1 [PP1574, (2S,8S,12R,14S,20S,23S,27S,30S,36S,38Z)-20-cyclopentyl-8-[2-[3,5-difluoro-4-(trifluoromethyl)phenyl]ethyl]-12-ethoxy-N-ethyl-27-isobutyl-N,4,19,22,26,32,35-heptamethyl-30-[(1S)-1-methylpropyl]-3,6,9,15,18,21,25,28,31,34,42-undecaoxo-2-[[4-(trifluoromethyl)phenyl]methyl]spiro[1,4,7,10,16,19,22,26,29,32,35-undecazatricyclo[34.5.1.0^10,14]dotetracont-38-ene-17,1′-cyclopentane]-23-carboxamide] | 9.82 | A (a compound having 10 or more and less than 20 is denoted as A) | A (a compound having 10 or more and less than 20 is denoted as A) |
| CCCOC[C@H]1C(=O)N[C@@H]([C@@H](C)CC)C(=O)N(C)CC(=O)N(C)[C@H]2C/C=C\CCN(C2=O)[C@@H](Cc2ccc(C(F)(F)F)cc2)C(=O)N(C)CC(=O)N[C@@H](CCc2cc(F)c(C(F)(F)F)c(F)c2)C(=O)N2C[C@H](OCC)C[C@H]2C(=O)NC2(CC(C)(C)C2)C(=O)N(C)[C@@H](C2CCCC2)C(=O)N(C)[C@H](C(=O)N(CC)CC)CC(=O)N1C [PP1575] | 9.26 | B (a compound having 3 or more and less than 10 is denoted as B) | B (a compound having 3 or more and less than 10 is denoted as B) |
| CCO[C@@H]1C[C@H]2C(=O)NC3(CC(C)(C)C3)C(=O)N(C)[C@@H](C3CCCC3)C(=O)N(C)[C@H](C(=O)N(C)CC)CC(=O)N(C)[C@@H](CC)C(=O)N[C@@H]([C@@H](C)CC)C(=O)N(C)CC(=O)N(C)[C@H]3C/C=C\CCN(C3=O)[C@@H](Cc3ccc(C(F)(F)F)cc3)C(=O)N(C)CC(=O)N[C@@H](CCc3cc(F)c(C(F)(F)F)c(F)c3)C(=O)N2C1 [PP1579] | 10.06 | A (a compound having 10 or more and less than 20 is denoted as A) | B (a compound having 3 or more and less than 10 is denoted as B) |
| CCO[C@@H]1C[C@H]2C(=O)NC3(CCC3)C(=O)N(C)[C@@H](C3CCCC3)C(=O)N(C)[C@H](C3CCCCC3)CC(=O)N(C)[C@@H](COC)C(=O)N[C@@H]([C@@H](C)CC)C(=O)N(C)CC(=O)N(C)[C@H]3C/C=C\CCN(C3=O)[C@@H](Cc3ccc(C(F)(F)F)cc3)C(=O)N(C)CC(=O)N[C@@H](CCc3cc(F)c(C(F)(F)F)c(F)c3)C(=O)N2C1 [PP1584] | 9.25 | B (a compound having 3 or more and less than 10 is denoted as B) | B (a compound having 3 or more and less than 10 is denoted as B) |
| CCO[C@@H]1C[C@H]2C(=O)NC3(CC(F)(F)C3)C(=O)N(C)[C@@H](C3CCCC3)C(=O)N(C)C(C3CCCCC3)CC(=O)N(C)[C@@H](COC)C(=O)N[C@@H]([C@@H](C)CC)C(=O)N(C)CC(=O)N(C)[C@H]3C/C=C\CCN(C3=O)[C@@H](Cc3ccc(C(F)(F)F)cc3)C(=O)N(C)CC(=O)N[C@@H](CCc3cc(F)c(C(F)(F)F)c(F)c3)C(=O)N2C1 (stereo partly drawn) [PP1586] | 9.12 | A (a compound having 10 or more and less than 20 is denoted as A) | A (a compound having 10 or more and less than 20 is denoted as A) |
| CCO[C@@H]1C[C@H]2C(=O)NC3(CCC3)C(=O)N(C)[C@@H](C(CC)CC)C(=O)N(C)C(C(C)C)CC(=O)N(C)[C@@H](CC)C(=O)N[C@@H]([C@@H](C)CC)C(=O)N(C)CC(=O)N(C)[C@H]3C/C=C\CCN(C3=O)[C@@H](Cc3ccc(C(F)(F)F)cc3)C(=O)N(C)CC(=O)N[C@@H](CCc3cc(F)c(C(F)(F)F)c(F)c3)C(=O)N2C1 (stereo partly drawn) [PP1589] | 8.74 | A (a compound having 10 or more and less than 20 is denoted as A) | A (a compound having 10 or more and less than 20 is denoted as A) |
| CCO[C@@H]1C[C@H]2C(=O)NC3(CCC3)C(=O)N(C)[C@@H](C3CCCC3)C(=O)N(C)C(C(C)C)CC(=O)N(C)[C@@H](CC)C(=O)N[C@@H]([C@@H](C)CC)C(=O)N(C)CC(=O)N(C)[C@H]3C/C=C\CCN(C3=O)[C@@H](Cc3ccc(C(F)(F)F)cc3)C(=O)N(C)CC(=O)N[C@@H](CCc3cc(F)c(C(F)(F)F)c(F)c3)C(=O)N2C1 (stereo partly drawn) [PP1590] | 9.54 | A (a compound having 10 or more and less than 20 is denoted as A) | B (a compound having 3 or more and less than 10 is denoted as B) |
| CCO[C@@H]1C[C@H]2C(=O)NC3(CC(F)(F)C3)C(=O)N(C)[C@@H](C(CC)CC)C(=O)N(C)C(C(C)C)CC(=O)N(C)[C@@H](CC)C(=O)N[C@@H]([C@@H](C)CC)C(=O)N(C)CC(=O)N(C)[C@H]3C/C=C\CCN(C3=O)[C@@H](Cc3ccc(C(F)(F)F)cc3)C(=O)N(C)CC(=O)N[C@@H](CCc3cc(F)c(C(F)(F)F)c(F)c3)C(=O)N2C1 (stereo partly drawn) [PP1591] | 8.34 | A (a compound having 10 or more and less than 20 is denoted as A) | A (a compound having 10 or more and less than 20 is denoted as A) |
| CCO[C@@H]1C[C@H]2C(=O)NC3(CC(C)(C)C3)C(=O)N(C)[C@@H](C(CC)CC)C(=O)N(C)C(C(C)C)CC(=O)N(C)[C@@H](CC3CC3)C(=O)N[C@@H]([C@@H](C)CC)C(=O)N(C)CC(=O)N(C)[C@H]3C/C=C\CCN(C3=O)[C@@H](Cc3ccc(C(F)(F)F)cc3)C(=O)N(C)CC(=O)N[C@@H](CCc3cc(F)c(C(F)(F)F)c(F)c3)C(=O)N2C1 (stereo partly drawn) [PP1593] | 8.37 | A (a compound having 10 or more and less than 20 is denoted as A) | A (a compound having 10 or more and less than 20 is denoted as A) |
| CCO[C@@H]1C[C@H]2C(=O)NC3(CCC3)C(=O)N(C)[C@@H](C(CC)CC)C(=O)N(C)C(C(C)C)CC(=O)N(C)[C@@H](CC3CC3)C(=O)N[C@@H]([C@@H](C)CC)C(=O)N(C)CC(=O)N(C)[C@H]3C/C=C\CCN(C3=O)[C@@H](Cc3ccc(C(F)(F)F)cc3)C(=O)N(C)CC(=O)N[C@@H](CCc3cc(F)c(C(F)(F)F)c(F)c3)C(=O)N2C1 (stereo partly drawn) [PP1595] | 8.64 | A (a compound having 10 or more and less than 20 is denoted as A) | A (a compound having 10 or more and less than 20 is denoted as A) |
| CCO[C@@H]1C[C@H]2C(=O)NC3(CC(F)(F)C3)C(=O)N(C)[C@@H](C3CCCC3)C(=O)N(C)C(C(C)C)CC(=O)N(C)[C@@H](CC3CC3)C(=O)N[C@@H]([C@@H](C)CC)C(=O)N(C)CC(=O)N(C)[C@H]3C/C=C\CCN(C3=O)[C@@H](Cc3ccc(C(F)(F)F)cc3)C(=O)N(C)CC(=O)N[C@@H](CCc3cc(F)c(C(F)(F)F)c(F)c3)C(=O)N2C1 (stereo partly drawn) [PP1598] | 9.12 | A (a compound having 10 or more and less than 20 is denoted as A) | A (a compound having 10 or more and less than 20 is denoted as A) |
| CCO[C@@H]1C[C@H]2C(=O)NC3(CCC3)C(=O)N(C)[C@@H](C3CCCC3)C(=O)N(C)[C@H](C(C)C)CC(=O)N(C)[C@@H](CC)C(=O)N[C@@H]([C@@H](C)CC)C(=O)N(C)CC(=O)N(C)[C@H]3C/C=C\CCN(C3=O)[C@@H](CC3CCCCC3)C(=O)N(C)CC(=O)N[C@@H](CCc3cc(F)c(C(F)(F)F)c(F)c3)C(=O)N2C1 [PP1601] | 8.68 | B (a compound having 3 or more and less than 10 is denoted as B) | A (a compound having 10 or more and less than 20 is denoted as A) |
| CCO[C@@H]1C[C@H]2C(=O)NC3(CC(C)(C)C3)C(=O)N(C)[C@@H](C3CCCC3)C(=O)N(C)[C@H](C(C)C)CC(=O)N(C)[C@@H](CC)C(=O)N[C@@H]([C@@H](C)CC)C(=O)N(C)CC(=O)N(C)[C@H]3C/C=C\CCN(C3=O)[C@@H](CC3CCCCC3)C(=O)N(C)CC(=O)N[C@@H](CCc3cc(F)c(C(F)(F)F)c(F)c3)C(=O)N2C1 [PP1603] | 8.28 | B (a compound having 3 or more and less than 10 is denoted as B) | B (a compound having 3 or more and less than 10 is denoted as B) |
| CCO[C@@H]1C[C@H]2C(=O)NC3(CC(C)(C)C3)C(=O)N(C)[C@@H](C(CC)CC)C(=O)N3CCC[C@@H]3CC(=O)N(C)[C@@H](CC)C(=O)N[C@@H]([C@@H](C)CC)C(=O)N(C)CC(=O)N(C)[C@H]3C/C=C\CCN(C3=O)[C@@H](Cc3ccc(C(F)(F)F)cc3)C(=O)N(C)CC(=O)N[C@@H](CCc3cc(F)c(C(F)(F)F)c(F)c3)C(=O)N2C1 [PP1605] | 9.10 | A (a compound having 10 or more and less than 20 is denoted as A) | A (a compound having 10 or more and less than 20 is denoted as A) |
